The target of assay [1] is T1, AlaRS^R329H (Homo sapiens, UniProt P49588, R329H).
T1 construct: made in house; host or cells: E. coli BL21 (DE3), pET-21a
T1 sequence (P49588 1-968 R329H): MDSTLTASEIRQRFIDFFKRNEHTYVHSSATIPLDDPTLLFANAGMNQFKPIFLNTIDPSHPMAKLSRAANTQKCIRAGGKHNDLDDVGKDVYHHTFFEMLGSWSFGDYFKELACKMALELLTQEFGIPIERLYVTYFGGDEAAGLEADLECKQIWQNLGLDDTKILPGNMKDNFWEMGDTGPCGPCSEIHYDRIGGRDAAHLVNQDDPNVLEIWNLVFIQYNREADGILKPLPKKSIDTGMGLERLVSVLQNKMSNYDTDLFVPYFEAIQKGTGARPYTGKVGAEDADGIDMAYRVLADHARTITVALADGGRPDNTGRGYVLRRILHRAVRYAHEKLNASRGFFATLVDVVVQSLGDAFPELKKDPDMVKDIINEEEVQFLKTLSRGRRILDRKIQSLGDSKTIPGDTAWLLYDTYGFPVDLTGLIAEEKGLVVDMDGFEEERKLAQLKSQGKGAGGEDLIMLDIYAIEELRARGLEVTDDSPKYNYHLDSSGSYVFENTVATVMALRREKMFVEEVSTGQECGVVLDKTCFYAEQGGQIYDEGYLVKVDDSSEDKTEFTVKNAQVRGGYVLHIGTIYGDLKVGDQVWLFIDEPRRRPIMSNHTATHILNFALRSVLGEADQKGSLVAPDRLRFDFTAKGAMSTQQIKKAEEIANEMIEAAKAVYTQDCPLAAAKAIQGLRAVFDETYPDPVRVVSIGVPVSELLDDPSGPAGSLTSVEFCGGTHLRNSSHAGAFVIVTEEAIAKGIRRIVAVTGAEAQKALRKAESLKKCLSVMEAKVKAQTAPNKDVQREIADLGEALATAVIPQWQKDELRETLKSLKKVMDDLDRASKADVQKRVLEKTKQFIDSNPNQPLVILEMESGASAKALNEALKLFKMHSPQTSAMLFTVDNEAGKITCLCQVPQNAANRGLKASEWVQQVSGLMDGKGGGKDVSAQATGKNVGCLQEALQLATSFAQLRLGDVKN
Put plainly: Thermal shift assay (TSA). The format is binding. The conditions noted are these: positive hit = shift of more than 2.5 °C. The text has this: In this assay, with increasing temperatures, the protein undergoes thermal unfolding, exposing its hydrophobic core. Subsequently, a fluorescent dye binds to these hydrophobic regions, becoming unquenched. Fluorescence is closely monitored, and the midpoint of the protein unfolding transition is designated as the Tm. Ligand binding frequently influences protein thermal stability during denaturation. Thus, the ligand binding affinity of any potential inhibitor can be gauged by evaluating the shift in the Tm. In this experiment, we screened a library of 2000 small molecules (Table S1) and classified as positive hits those that caused a shift in the Tm of the mutant protein of more than 2.5 °C. From the TSA, we identified four small molecules that met this criterion (Figure 2A, Table 1). Specifically, Atazanavir sulfate caused a shift of 4.0 °C, Tanshinone I a shift of 3.1 °C, Hederacolchiside A1 a shift of 4.3 °C, and Hexylresorcinol a shift of 5.5 °C (Figure 2B). To assess the impact of small molecules on the thermal stability of mutant proteins, thermal shift assays were performed using a […] (Applied Biosystems, Waltham, MA, USA) with the Protein Thermal Shift™ Kit dye (Thermo Fisher Scientific, Waltham, MA, USA). Each well of a 96-well Optical Reaction Plate (Applied Biosystems) contained 14 μL of thermal shift buffer, 2 μL of diluted thermal shift dye (8×), 2 μL of a 1 mM small molecule solution, and 2 μL of 1 mg/mL protein. Plates were incubated at 4 °C for 1 h before being heated from 25 °C to 95 °C at 1 °C/min. The fluorescence signal of SYPRO orange (excitation/emission: 490/530 nm) was recorded at 30 s intervals to monitor protein denaturation. The melting temperature (Tm), defined as the midpoint of the unfolding transition, was determined from the fluorescence–temperature curve. ΔTm was calculated as the difference in Tm between AlaRS^R329H treated with compounds and the control. Experiments were conducted in triplicate for accuracy. The experiment was repeated three times.

The target of assay [2] is T1, AlaRS^R329H. Put plainly: Biolayer interferometry (BLI). The format is binding. The conditions noted are these: immobilized AlaRS^R329H, 40, 20, 10, 5, 2.5 μM, mean ± SD, triplicate. The source says: To quantitatively analyze the binding affinity between the small molecules and the CMT mutant proteins, we performed BLI analysis on the selected candidates. BLI offers direct measurements of drug–protein binding kinetics, including key parameters such as the equilibrium dissociation constant (KD), association rate (Kon), and dissociation rate (Koff). This analysis provided key insights into the binding affinities of the four small molecules with the mutant protein AlaRS^R329H. […] To further quantify the binding of small molecules to mutant proteins, binding experiments with AlaRS^R329H proteins and small molecules were conducted using an Octet R8 system (ForteBio, Fremont, CA, USA). Purified His-tagged AlaRS^R329H proteins (500 μg/mL) were captured on Ni-NTA biosensors (ForteBio, Fremont, CA, USA), achieving a saturation response of 4–5 nm after 300 s. The biosensors were then transferred to Octet buffer (PBS with 0.01% Tween 20) for 180 s to remove loosely bound, nonspecific proteins and to establish a stable baseline. Following this, the sensors were immersed in diluted Tanshinone I (2.5–100 μM in assay buffer) for 120 s to record the association signal, and then transferred back into Octet buffer to monitor the dissociation signal for 120 s. Reference wells containing buffer instead of Tanshinone I were included to correct for baseline shifts. Additionally, a parallel set of Ni-NTA sensors in buffer served as negative reference controls to account for nonspecific binding of the compounds to the biosensor surface. The data were processed using a double reference subtraction protocol to eliminate nonspecific signals, background noise, and signal drifts caused by biosensor variability. All assays were performed in 96-well black plates with a total volume of 200 μL per well at 30 °C. Data analysis, including correction and curve fitting, was carried out using Octet® Analysis Studio 12.2.2.26. The experiment was repeated three times.
For orientation: In BLI a coated tip is dipped into the sample, and binding shifts an interference pattern.

In assay [3] the target is T1, AlaRS^R329H. In words: ATP consumption assay (enzyme inhibition). In kind it is biochemical. The conditions noted are these: 1 μM AlaRS^R329H at 20 μM compounds; vs DMSO control. How it is done:
We further investigated the effects of the four small molecules on the enzymatic activity of the AlaRS^R329H protein using an ATP consumption assay. All four compounds affected enzymatic activity to varying degrees. […] The ATP consumption assay was used to evaluate the enzymatic inhibitory activity of the compounds. A 30 μL reaction mixture, containing 1 μM AlaRS mutants, 25 μM ATP, 50 μM L-alanine, 30 mM HEPES (pH 7.5), 150 mM NaCl, 30 mM KCl, 40 mM MgCl2, 0.1% BSA, and varying concentrations of Tanshinone I, was incubated at room temperature for 15 min. After incubation, 10 μL of the mixture was transferred to a 384-well microplate, and AlaRS mutant activity was measured by adding 10 μL of the ATP Assay Kit (#S0026, Beyotime, Shanghai, China). Luminescence was recorded using a Synergy HTX multimode microplate reader (BioTek Inc., Winooski, VT, USA). The inhibitory rate was calculated from three independent assays to ensure the accurate assessment of Tanshinone I’s inhibitory activity. The experiment was repeated three times.

Assay [4] deals with T1, AlaRS^R329H. In words: Proteolytic digestion assay (trypsin, SDS-PAGE). The conditions noted are these: 3 h. The procedure:
To delve deeper into the impact of selected small molecules on the structural conformation of AlaRS^R329H proteins, a series of proteolysis experiments were conducted. The small molecules were incubated with AlaRS^R329H proteins at room temperature for three hours, followed by SDS-PAGE analysis to evaluate their effects on the distribution of the digestion fragments. […] The AlaRS^R329H proteins (in the presence and absence of Atazanavir sulfate, Tanshinone I, Hederacolchiside A1, and Hexylresorcinol) were incubated with trypsin at different concentrations for 3 h before the reactions were quenched, and the products were separated by SDS-PAGE.

Usually Kd stands for the constant that tells how readily two partners part at equilibrium. High values mean lower affinity, low ones higher affinity.

Molecules are shown by their SMILES. Counter-ions that a name gives are not always drawn.

On to `COC(=O)N[C@H](C(=O)N[C@@H](Cc1ccccc1)[C@@H](O)CN(Cc1ccc(-c2ccccn2)cc1)NC(=O)[C@@H](NC(=O)OC)C(C)(C)C)C(C)(C)C` [Atazanavir sulfate, reference compound], for which the “ΔTm (shift between the Tm values of AlaRS^R329H with and without compounds)” value on AlaRS^R329H [1] was determined as 4.0 °C. At AlaRS^R329H [2], this compound displayed a Kd of 28.6 ± 9.9 µM. Besides, the “Relative Activity (relative enzyme activity of the first step)” value (from here on “Relative Activity”) on AlaRS^R329H [3] is recorded as 96.8%. Moreover, the “Effect on distribution of digestion fragments / conformation” value at AlaRS^R329H [4] is given as “minimal effects on the distribution of digestion fragments”.
Consider `CCCCCCc1ccc(O)cc1O` [Hexylresorcinol, reference compound], for which, on AlaRS^R329H [2], binding was characterised by a dissociation constant (Kd) of 26.3 ± 9.9 µM. For the same compound, on AlaRS^R329H [3], the “Relative Activity” value worked out at 79.8%. The “Effect on distribution of digestion fragments / conformation” value on AlaRS^R329H [4] is on record as “minimal effects on the distribution of digestion fragments”.
As to `C[C@@H]1O[C@@H](O[C@H]2[C@H](O[C@H]3CC[C@]4(C)[C@H]5CC=C6[C@@H]7CC(C)(C)CC[C@]7(C(=O)O)CC[C@@]6(C)[C@]5(C)CC[C@H]4C3(C)C)OC[C@H](O[C@@H]3O[C@H](CO)[C@@H](O)[C@H](O)[C@H]3O)[C@@H]2O)[C@H](O)[C@H](O)[C@H]1O` [Hederacolchiside A1], the “ΔTm (shift between the Tm values of AlaRS^R329H with and without compounds)” value at AlaRS^R329H [1] came out at 4.3 °C. The same compound displayed a Kd at AlaRS^R329H [2] of 10.1 ± 0.5 µM. Further, on AlaRS^R329H [3], the “Relative Activity” value was determined as 69.6%. Besides, the “Effect on distribution of digestion fragments / conformation” value at AlaRS^R329H [4] is “slight conformational change”.

Source of the values: article PMC11509018, “Evaluation of the Role of Tanshinone I in an In Vitro System of Charcot-Marie-Tooth Disease Type 2N” (International Journal of Molecular Sciences, 2024).
